In patent US9593108B2, “Compounds and methods for antiviral treatment” (PTC Therapeutics, Inc., priority 2009, dated 2017):

Legend:
[1] = tested on: HCV replicon RNA (GenBank Accession No. AJ242654); test: HCV Replicon Assay (replicon RNA reduction and/or Fluc reporter signal); assay type: cell-based, Hepatitis C virus; settings: Hepatitis C virus, 72 h, replicon-containing cells cultured with test compound for up to 3 days
Procedure, shortened: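 Bicistronic replicon-containing cells cultured with compound for up to 3 days, with interferon as positive control. Inhibition quantified by replicon RNA reduction and/or Fluc reporter signal; IC50 values generally derived from replicon RNA reduction.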

SMILES | IC50 [1] [µM] | melting point [°C]
CC(C)(NS(=O)(=O)c1ccc(-c2c(C#N)c3cc(C(F)(F)F)cnc3n2C2CCCCC2)cc1)C(F)(F)F [Cpd 418, 4-[3-cyano-1-cyclohexyl-5-(trifluoromethyl)-1H-pyrrolo[2,3-b]pyridin-2-yl]-N-(1,1,1-trifluoro-2-methylpropan-2-yl)benzenesulfonamide] | < 0.5 | 203 to 205
N#Cc1c(-c2ccc(S(=O)(=O)NC3(C(F)(F)F)CC3)cn2)n(C2CCCCC2)c2ncc(C(F)(F)F)cc12 [Cpd 419, 6-[3-cyano-1-cyclohexyl-5-(trifluoromethyl)-1H-pyrrolo[2,3-b]pyridin-2-yl]-N-[1-(trifluoromethyl)cyclopropyl]pyridine-3-sulfonamide] | < 0.5 | 192 to 193
N#Cc1c(-c2ccc(S(=O)(=O)NC3(C(F)(F)F)CC3)cc2)n(C2CCCCC2)c2ncc(C(F)(F)F)cc12 [Cpd 420, 4-[3-cyano-1-cyclohexyl-5-(trifluoromethyl)-1H-pyrrolo[2,3-b]pyridin-2-yl]-N-[1-(trifluoromethyl)cyclopropyl]benzenesulfonamide] | < 0.5 | 195 to 197
CC1(NS(=O)(=O)c2ccc(-c3c(C#N)c4cc(C(F)(F)F)cnc4n3C3CCCCC3)cc2)CC1 [Cpd 421, 4-[3-cyano-1-cyclohexyl-5-(trifluoromethyl)-1H-pyrrolo[2,3-b]pyridin-2-yl]-N-(1-methylcyclopropyl)benzenesulfonamide] | < 0.5 | 173 to 175
CC(C)(C)NS(=O)(=O)c1ccc(-c2c(C#N)c3cc(C(F)(F)F)cnc3n2C2CCCCC2)cc1 [Cpd 422, N-tert-butyl-4-[3-cyano-1-cyclohexyl-5-(trifluoromethyl)-1H-pyrrolo[2,3-b]pyridin-2-yl]benzenesulfonamide] | < 0.5 | 176 to 178
C[C@@H](NS(=O)(=O)c1ccc(-c2c(C#N)c3cc(C(F)(F)F)cnc3n2C2CCCCC2)cc1)C(F)(F)F [Cpd 423, 4-[3-cyano-1-cyclohexyl-5-(trifluoromethyl)-1H-pyrrolo[2,3-b]pyridin-2-yl]-N-[(2R)-1,1,1-trifluoropropan-2-yl]benzenesulfonamide] | < 0.5 | 185 to 187
CC(C)(C)S(=O)(=O)Nc1ccc(-c2c(C#N)c3cc(C(F)(F)F)cnc3n2C2CCCCC2)cc1 [Cpd 424, N-{4-[3-cyano-1-cyclohexyl-5-(trifluoromethyl)-1H-pyrrolo[2,3-b]pyridin-2-yl]phenyl}-2-methylpropane-2-sulfonamide] | < 0.5 | 245 to 247
CC(C)S(=O)(=O)Nc1ccc(-c2c(C#N)c3cc(C(F)(F)F)cnc3n2C2CCCCC2)cc1 [Cpd 425, N-{4-[3-cyano-1-cyclohexyl-5-(trifluoromethyl)-1H-pyrrolo[2,3-b]pyridin-2-yl]phenyl}propane-2-sulfonamide] | < 0.5 | 228 to 230
CC1(S(=O)(=O)Nc2ccc(-c3c(C#N)c4cc(C(F)(F)F)cnc4n3C3CCCCC3)cc2)CC1 [Cpd 426, N-{4-[3-cyano-1-cyclohexyl-5-(trifluoromethyl)-1H-pyrrolo[2,3-b]pyridin-2-yl]phenyl}-1-methylcyclopropanesulfonamide] | < 0.5 | 255 to 256
N#Cc1c(-c2ccc(NS(=O)(=O)C3CC3)cc2)n(C2CCCCC2)c2ncc(C(F)(F)F)cc12 [Cpd 427, N-{4-[3-cyano-1-cyclohexyl-5-(trifluoromethyl)-1H-pyrrolo[2,3-b]pyridin-2-yl]phenyl}cyclopropanesulfonamide] | < 0.5 | 225 to 227
N#Cc1c(-c2ccc(NS(=O)(=O)C3CCC3)cc2)n(C2CCCCC2)c2ncc(C(F)(F)F)cc12 [Cpd 428, N-{4-[3-cyano-1-cyclohexyl-5-(trifluoromethyl)-1H-pyrrolo[2,3-b]pyridin-2-yl]phenyl}cyclobutanesulfonamide] | < 0.5 | 234 to 236
C[C@H](NS(=O)(=O)c1ccc(-c2c(C#N)c3cc(Cl)cnc3n2-c2nccs2)nc1)C(F)(F)F [Cpd 429, 6-[5-chloro-3-cyano-1-(1,3-thiazol-2-yl)-1H-pyrrolo[2,3-b]pyridin-2-yl]-N-[(2S)-1,1,1-trifluoropropan-2-yl]pyridine-3-sulfonamide] | < 0.5 | 181 to 183
Cc1cnc2c(c1)c(C#N)c(-c1ccc(S(=O)(=O)N[C@@H](C)C(F)(F)F)cn1)n2-c1cncs1 [Cpd 430, 6-[3-cyano-5-methyl-1-(1,3-thiazol-5-yl)-1H-pyrrolo[2,3-b]pyridin-2-yl]-N-[(2S)-1,1,1-trifluoropropan-2-yl]pyridine-3-sulfonamide] | < 0.5 | 176 to 178
Cc1cnc2c(c1)c(C#N)c(-c1ccc(S(=O)(=O)N[C@@H](C)C(F)(F)F)cn1)n2-c1ccncn1 [Cpd 431, 6-[3-cyano-5-methyl-1-(pyrimidin-4-yl)-1H-pyrrolo[2,3-b]pyridin-2-yl]-N-[(2S)-1,1,1-trifluoropropan-2-yl]pyridine-3-sulfonamide] | < 0.5 | 233 to 235
Cc1cnc2c(c1)c(C#N)c(-c1ccc(S(=O)(=O)N[C@@H](C)C(F)(F)F)cn1)n2-c1ccc(F)cn1 [Cpd 432, 6-[3-cyano-1-(5-fluoropyridin-2-yl)-5-methyl-1H-pyrrolo[2,3-b]pyridin-2-yl]-N-[(2S)-1,1,1-trifluoropropan-2-yl]pyridine-3-sulfonamide] | < 0.5 | 199 to 200
Cc1cnc2c(c1)c(C#N)c(-c1ccc(S(=O)(=O)N[C@@H](C)C(F)(F)F)cn1)n2-c1cc(C(F)(F)F)ccn1 [Cpd 433, 6-{3-cyano-5-methyl-1-[4-(trifluoromethyl)pyridin-2-yl]-1H-pyrrolo[2,3-b]pyridin-2-yl}-N-[(2S)-1,1,1-trifluoropropan-2-yl]pyridine-3-sulfonamide] | < 0.5 | 192 to 194
Cc1cnc2c(c1)c(C#N)c(-c1ccc(S(=O)(=O)N[C@@H](C)C(F)(F)F)cn1)n2-c1cc(N)ccn1 [Cpd 434, 6-[1-(4-aminopyridin-2-yl)-3-cyano-5-methyl-1H-pyrrolo[2,3-b]pyridin-2-yl]-N-[(2S)-1,1,1-trifluoropropan-2-yl]pyridine-3-sulfonamide] | 2 to 5 | 202 to 203
Cc1cnc2c(c1)c(C#N)c(-c1ccc(S(=O)(=O)N[C@@H](C)C(F)(F)F)cn1)n2-c1ncc(Br)cn1 [Cpd 435, 6-[1-(5-bromopyrimidin-2-yl)-3-cyano-5-methyl-1H-pyrrolo[2,3-b]pyridin-2-yl]-N-[(2S)-1,1,1-trifluoropropan-2-yl]pyridine-3-sulfonamide] | 0.5 to 2 | 169 to 171
Cc1cnc2c(c1)c(C#N)c(-c1ccc(S(=O)(=O)N[C@@H](C)C(F)(F)F)cn1)n2-c1ccnnc1 [Cpd 436, 6-[3-cyano-5-methyl-1-(pyridazin-4-yl)-1H-pyrrolo[2,3-b]pyridin-2-yl]-N-[(2S)-1,1,1-trifluoropropan-2-yl]pyridine-3-sulfonamide] | < 0.5 | 196 to 198
C[C@H](NS(=O)(=O)c1ccc(-c2c(C(N)=O)c3cc(C(F)(F)F)cnc3n2C2CCCCC2)cc1)C(F)(F)F [Cpd 437, 1-cyclohexyl-5-(trifluoromethyl)-2-(4-{[(2S)-1,1,1-trifluoropropan-2-yl]sulfamoyl}phenyl)-1H-pyrrolo[2,3-b]pyridine-3-carboxamide] | < 0.5 | 291 to 293
CC(C)(NS(=O)(=O)c1ccc(-c2c(C(N)=O)c3cc(C(F)(F)F)cnc3n2C2CCCCC2)nc1)C(F)(F)F [Cpd 438, 1-cyclohexyl-5-(trifluoromethyl)-2-{5-[(1,1,1-trifluoro-2-methylpropan-2-yl)sulfamoyl]pyridin-2-yl}-1H-pyrrolo[2,3-b]pyridine-3-carboxamide] | < 0.5 | 250 to 252
CC(C)(NS(=O)(=O)c1ccc(-c2c(C(N)=O)c3cc(C(F)(F)F)cnc3n2C2CCCCC2)cc1)C(F)(F)F [Cpd 439, 1-cyclohexyl-5-(trifluoromethyl)-2-{4-[(1,1,1-trifluoro-2-methylpropan-2-yl)sulfamoyl]phenyl}-1H-pyrrolo[2,3-b]pyridine-3-carboxamide] | < 0.5 | 280 to 283
NC(=O)c1c(-c2ccc(S(=O)(=O)NC3(C(F)(F)F)CC3)cn2)n(C2CCCCC2)c2ncc(C(F)(F)F)cc12 [Cpd 440, 1-cyclohexyl-5-(trifluoromethyl)-2-(5-{[1-(trifluoromethyl)cyclopropyl]sulfamoyl}pyridin-2-yl)-1H-pyrrolo[2,3-b]pyridine-3-carboxamide] | < 0.5 | 272 to 275
NC(=O)c1c(-c2ccc(S(=O)(=O)NC3(C(F)(F)F)CC3)cc2)n(C2CCCCC2)c2ncc(C(F)(F)F)cc12 [Cpd 441, 1-cyclohexyl-5-(trifluoromethyl)-2-(4-{[1-(trifluoromethyl)cyclopropyl]sulfamoyl}phenyl)-1H-pyrrolo[2,3-b]pyridine-3-carboxamide] | < 0.5 | 303 to 306
CC1(NS(=O)(=O)c2ccc(-c3c(C(N)=O)c4cc(C(F)(F)F)cnc4n3C3CCCCC3)cc2)CC1 [Cpd 442, 1-cyclohexyl-2-{4-[(1-methylcyclopropyl)sulfamoyl]phenyl}-5-(trifluoromethyl)-1H-pyrrolo[2,3-b]pyridine-3-carboxamide] | < 0.5 | 284 to 286
CC(C)(C)NS(=O)(=O)c1ccc(-c2c(C(N)=O)c3cc(C(F)(F)F)cnc3n2C2CCCCC2)cc1 [Cpd 443, 2-[4-(tert-butylsulfamoyl)phenyl]-1-cyclohexyl-5-(trifluoromethyl)-1H-pyrrolo[2,3-b]pyridine-3-carboxamide] | < 0.5 | 290 to 292
